# ChEMBL document CHEMBL1122600, “Receptor binding sites of hypoglycemic sulfonylureas and related [(acylamino)alkyl]benzoic acids” (1984)
# Test system: Rattus norvegicus
# Test: Effect of the compound (50 mg/kg, po) on rat blood sugar level which was given an oral glucose load (1 g/kg) 1 hr after the administration of compound
# Assay type: functional
row,Compound,Change in rat blood sugar
1,COc1ccc(Cl)cc1C(=O)NCCc1ccc(N)cc1,7%
2,COc1ccc(Cl)cc1C(=O)NCCc1ccc(C(C)=O)cc1,-11%
3,COc1ccc(Cl)cc1C(=O)NCCc1ccc(OCC(=O)O)cc1,-9%
4,COc1ccc(Cl)cc1C(=O)NCCc1ccccc1,-7%
5,COc1ccc(Cl)cc1C(=O)NCCc1ccc(C)cc1,-55%
6,COc1ccc(Cl)cc1C(=O)NCCc1ccc(C(F)(F)F)cc1,-3%
7,C=Cc1ccc(CCNC(=O)c2cc(Cl)ccc2OC)cc1,-6%
8,COc1ccc(Cl)cc1C(=O)NCCCCCC(=O)O,9%
9,COc1ccc(Cl)cc1C(=O)NCCc1ccc(O)cc1,2%
10,COc1ccc(Cl)cc1C(=O)NCCc1ccc(C(C)O)cc1 (stereo not given),-11%
11,COc1ccc(Cl)cc1C(=O)NCCc1ccc(S(=O)(=O)NC(=O)NC2CCCCC2)cc1 [GLYBURIDE],-44%
12,COc1ccc(Cl)cc1C(=O)NCCc1ccc([N+](=O)[O-])cc1,2%
13,COc1ccc(Cl)cc1C(=O)NCCc1ccc(Cl)cc1,0%
14,CCc1ccc(CCNC(=O)c2cc(Cl)ccc2OC)cc1,-4%
15,COc1ccc(Cl)cc1C(=O)NCCc1ccc(C(=O)O)cc1 [MEGLITINIDE],-63%
